EP1779853A2, “9a-azalides as veterinary antimicrobial agents” (Merial Ltd., priority 1997, dated 1999)
In brackets after ≈: the same amount, converted by molar mass.

Legend:
Experiment in all cases: MIC determination (culture tube dilution) against veterinary pathogens
Type in all cases: cell-based
[1] = test system: Salmonella spp.; conditions: one range summarising both compounds
Experimental: (§1) The antibacterial activity of representative 9a-azalides against a panel of veterinary pathogens was determined by the minimum inhibitory concentration (MIC) method well known in the art. This is done by preparing a series of culture tubes, each containing a medium with a different concnetration of the antimicrobial agent, and inoculating all the tubes with the same organism. The lowest concentration of agent that completely prevents the appearance of turbidity is noted, and this concentration is called the MIC.

[2] = test system: P. haemolytica; conditions: Mannheimia haemolytica, one range summarising both compounds
Experimental: as §1

[3] = test system: A. pleuropneumoniae; conditions: Actinobacillus pleuropneumoniae, one range summarising both compounds
Experimental: as §1

[4] = test system: H. somnus; conditions: one range summarising both compounds
Experimental: as §1

[5] = test system: P. multocida; conditions: Pasteurella multocida, one range summarising both compounds
Experimental: as §1

[6] = test system: E. coli; conditions: Escherichia coli, one range summarising both compounds
Experimental: as §1

Structure (SMILES)	MIC [1] [mg/L]	MIC [2] [mg/L]	MIC [3] [mg/L]	MIC [4] [mg/L]	MIC [5] [mg/L]	MIC [6] [mg/L]
CC[C@H]1OC(=O)[C@H](C)[C@@H](O[C@H]2C[C@@](C)(OC)[C@@H](N)[C@H](C)O2)[C@H](C)[C@@H](O[C@@H]2O[C@H](C)C[C@H](N(C)C)[C@H]2O)[C@](C)(O)C[C@@H](C)CN(C)[C@H](C)[C@@H](O)[C@]1(C)O [4"-deoxy-4"-aminoazithromycin]	1 to 16 (≈ 1.34 to 21.4 µM)	0.125 to 0.5 (≈ 0.167 to 0.668 µM)	0.062 to 0.5 (≈ 0.0829 to 0.668 µM)	0.062 to 0.25 (≈ 0.0829 to 0.334 µM)	0.125 to 2 (≈ 0.167 to 2.67 µM)	0.5 to 16 (≈ 0.668 to 21.4 µM)
CC[C@H]1OC(=O)[C@H](C)[C@@H](O[C@H]2C[C@@](C)(OC)[C@@H](O)[C@H](C)O2)[C@H](C)[C@@H](O[C@@H]2O[C@H](C)C[C@H](N(C)C)[C@H]2O)[C@](C)(O)C[C@@H](C)CN(C)[C@H](C)[C@@H](O)[C@]1(C)O [azithromycin, 9-deoxo-9a-aza-9a-methyl-9a-homoerythromycin A]	1 to 16 (≈ 1.34 to 21.4 µM)	0.125 to 0.5 (≈ 0.167 to 0.668 µM)	0.062 to 0.5 (≈ 0.0828 to 0.668 µM)	0.062 to 0.25 (≈ 0.0828 to 0.334 µM)	0.125 to 2 (≈ 0.167 to 2.67 µM)	0.5 to 16 (≈ 0.668 to 21.4 µM)
